Experiment [1] addresses T1, IRAK4 (Homo sapiens, UniProt Q9NWZ3).
T1 sequence (Q9NWZ3 1-460): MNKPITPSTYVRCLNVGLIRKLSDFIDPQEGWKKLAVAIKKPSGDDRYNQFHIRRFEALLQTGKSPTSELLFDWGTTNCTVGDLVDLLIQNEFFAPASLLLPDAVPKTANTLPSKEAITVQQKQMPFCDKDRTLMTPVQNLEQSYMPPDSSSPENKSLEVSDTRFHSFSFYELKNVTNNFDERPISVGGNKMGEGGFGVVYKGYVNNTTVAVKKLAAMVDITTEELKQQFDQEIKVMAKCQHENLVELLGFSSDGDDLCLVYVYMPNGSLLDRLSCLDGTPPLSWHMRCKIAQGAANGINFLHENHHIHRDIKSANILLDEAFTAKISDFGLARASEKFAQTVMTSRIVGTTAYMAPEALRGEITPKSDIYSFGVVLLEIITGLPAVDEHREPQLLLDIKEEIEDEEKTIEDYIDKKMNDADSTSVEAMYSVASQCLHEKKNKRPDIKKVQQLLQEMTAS
To be noted: cited from earlier work.

Experiment [2] deals with CIA mouse model. To be noted: 50 mg/kg IP; cited from earlier work.
Experiment [3] has as its target T1, IRAK4. Briefly: Potency of takinib analogues against IRAK4. Type of experiment: biochemical. To be noted: IRAK4 IC50 over TAK1 IC50.
In experiment [4] the target is T2, TAK1 (Homo sapiens, UniProt O43318).
T2 sequence (O43318 1-303 limits assumed): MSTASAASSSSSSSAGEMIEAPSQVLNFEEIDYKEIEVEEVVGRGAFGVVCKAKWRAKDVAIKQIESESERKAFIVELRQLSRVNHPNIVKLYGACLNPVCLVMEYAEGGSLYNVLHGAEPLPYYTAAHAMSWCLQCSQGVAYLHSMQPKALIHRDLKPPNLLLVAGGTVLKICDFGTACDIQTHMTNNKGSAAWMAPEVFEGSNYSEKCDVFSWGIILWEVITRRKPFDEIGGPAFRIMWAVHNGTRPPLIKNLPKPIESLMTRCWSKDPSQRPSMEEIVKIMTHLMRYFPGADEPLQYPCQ
As to the kind of experiment: Potency of takinib analogues against TAK1. Type of experiment: biochemical.

A word on the IC50: it is the midpoint of a concentration-inhibition curve.

`CCCn1c(=NC(=O)c2cccc(C(N)=O)c2)[nH]c2ccccc21` [Takinib, N-(1-propyl-1,3-dihydro-2H-benzo[d]imidazol-2-ylidene)isophthalamide]: in experiment [1], the “IRAK4 less potently inhibited than TAK1” value is on record as 13 fold. Also, the IC50 in experiment [1] (read-out: IRAK4 IC50, two independent kinome wide screens) was about 120 nM; in experiment [4], 9 nM. For the same molecule, the “reduction of mean clinical score” value in experiment [2] is ~ 32%. For the same molecule, the Ratio in experiment [3] turned out to be 13.
